Results on 4 compounds are retold here after publication PMC10935503 (Acta Pharmaceutica Sinica. B, 2023).

As usually defined, the EC50 is the midpoint of the concentration-response curve. In general, CC50 refers to the concentration giving 50% cytotoxicity. The term AUC(0-inf) denotes the area under the concentration-time curve extrapolated to infinity. Low readings indicate low exposure, high ones high exposure. By AUC(0-t) is commonly meant exposure summed from dosing to a finite time, without extrapolation to infinity. A low value points to low exposure. Usually MRT inf stands for a mean duration of stay, worked out from the concentration-time curve. As a reminder, the MRT last is a mean duration of stay, worked out from the concentration-time curve. Usually clearance stands for a measure of how efficiently the substance is removed, as volume per time. What is called half-life is how long it takes for the measured level to halve. Read a low half-life as rapid decline. The term bioavailability denotes dose-corrected exposure relative to a reference, in per cent. A low value points to little systemic uptake. The term Cmax denotes the highest concentration seen after dosing. For orientation: Tmax means the time at which the peak concentration occurs. A word on the solubility: it is the dissolved amount per volume that the medium holds. Higher therefore signals much dissolved substance. The term IC50 denotes the point on the concentration scale where inhibition reaches its midpoint. A lower IC50 goes with greater potency in that assay.

For one data set, the system named is HIV-1 WT strain (IIIB). Kind of data set: Anti-HIV-1 activity in MT-4 cells, MTT method, WT strain IIIB. The conditions noted are these: Human immunodeficiency virus 1, IIIB, MT4, read-out: EC50 IIIB. The class given is cell-based.
The nature of data set [1]: Cytotoxicity in mock-infected MT-4 cells, MTT method. The class given is cell-based. The conditions noted are these: human. Background: Tetrazolium dyes change colour on reduction, which living cells bring about.
For data set [2] the following is noted: cited from earlier work.
Data set [3] has as its system HIV-1 K103N + Y181C (RES056). Kind of data set: microbe, parasite or virus in culture. The class given is cell-based. The conditions noted are these: for EC50: Human immunodeficiency virus 1, MT4, read-out: EC50 RES056; for RF RES056: resistance fold, EC50 (mutant strain)/EC50 (WT strain); for SI RES056: selectivity index, ratio of CC50/EC50.
The subject of another data set is HIV-1 K103N. Kind of data set: microbe, parasite or virus in culture. The class given is cell-based. The conditions noted are these: for EC50: Human immunodeficiency virus 1, MT4, read-out: EC50 K103N; for RF K103N: resistance fold, EC50 (mutant strain)/EC50 (WT strain); for SI K103N: selectivity index, ratio of CC50/EC50.
Data set [4] in a line: In vivo pharmacokinetics in SD rats. Further details: species or system Sprague–Dawley (SD) rats.
For the next data set, the system named is HIV-1 F227L + V106A. The data set is described as follows: microbe, parasite or virus in culture. The class given is cell-based. The settings on record: for EC50: Human immunodeficiency virus 1, MT4, read-out: EC50 F227L + V106A; for RF F227L + V106A: resistance fold, EC50 (mutant strain)/EC50 (WT strain); for SI F227L + V106A: selectivity index, ratio of CC50/EC50.

The test system of another data set is HIV-1 L100I. Kind of data set: microbe, parasite or virus in culture. The class given is cell-based. The conditions noted are these: for EC50: Human immunodeficiency virus 1, MT4, read-out: EC50 L100I; for RF L100I: resistance fold, EC50 (mutant strain)/EC50 (WT strain); for SI L100I: selectivity index, ratio of CC50/EC50.
The test system of the next data set is HIV-1 Y181C. The data set is described as follows: microbe, parasite or virus in culture. The class given is cell-based. The settings on record: for EC50: Human immunodeficiency virus 1, MT4, read-out: EC50 Y181C; for RF Y181C: resistance fold, EC50 (mutant strain)/EC50 (WT strain); for SI Y181C: selectivity index, ratio of CC50/EC50.
For another data set, the system named is HIV-1 Y188L. The data set is described as follows: microbe, parasite or virus in culture. The class given is cell-based. The conditions noted are these: for EC50: Human immunodeficiency virus 1, MT4, read-out: EC50 Y188L; for RF Y188L: resistance fold, EC50 (mutant strain)/EC50 (WT strain); for SI Y188L: selectivity index, ratio of CC50/EC50.
For data set [5], the system named is CYP1A2, CYP2C9, CYP2C19, CYP2D6 (range over isoforms). The data set is described as follows: Cytochrome P450 inhibition assay, summary over isoforms. The class given is in vitro ADME. The settings on record: human, human liver microsomes. In general terms: Liver microsomes are a subcellular fraction often used to study metabolism.
In the next data set the target is HIV-1 RT (Human immunodeficiency virus type 1 group M subtype B, UniProt P03366). Kind of data set: HIV-1 RT inhibition assay. The class given is biochemical.
The test system of the next data set is HIV-1 E138K. The data set is described as follows: microbe, parasite or virus in culture. The class given is cell-based. The conditions noted are these: for RF E138K: resistance fold, EC50 (mutant strain)/EC50 (WT strain); for EC50: Human immunodeficiency virus 1, MT4, read-out: EC50 E138K; for SI E138K: selectivity index, ratio of CC50/EC50.
Where [6] appears, read: Sprague-Dawley, rat, plasma, iv, 2 mg/kg.
The mark [7] stands for this setting: Sprague-Dawley, rat, plasma, po, 20 mg/kg.

For `Cc1cc(C#N)cc(C)c1Oc1nc(Nc2ccc(C#N)cc2)nc(N)c1Br` [ETR, etravirine, reference compound], in the data set on HIV-1 WT strain (IIIB), the EC50 came out at 2.81 ± 0.47 nM. This compound showed a CC50 at 5 days in data set [1] of 2200 ± 15 nM. In data set [2], the “Water solubility (Sol.)” value is less than 1 µg/mL. In addition, in data set [3], the EC50 was 35.2 ± 19.7 nM and the “RF RES056” value is recorded as 12.5. Further, in the data set with HIV-1 K103N, the EC50 was determined as 3.38 ± 0.69 nM and the “RF K103N” value came to 1.2. For the same compound, the “V (iv)” value in data set [4] (SD rats, iv 2 mg/kg, mean ± SD, n = 3) is recorded as 8.85 ± 1.17 L/kg. In [4] (setting [6]), the AUC(0-inf) came out at 587 ± 48 ng·h/mL, the AUC(0-t) amounted to 576 ± 45 ng·h/mL, the MRT inf worked out at 1.1 ± 0.34 h and the MRT last came to 0.93 ± 0.23 h. For the same compound, in data set [4] (setting [6]), the clearance was 57 mL/min/kg and the half-life was 1.8 ± 0.24 h. Moreover, in data set [4] (Sprague-Dawley, rat, plasma, oral, 20 mg/kg), the bioavailability stood at 7.17%. In data set [4] (setting [7]), the AUC(0-inf) came out at 421 ± 153 ng·h/mL, the AUC(0-t) came to 395 ± 139 ng·h/mL, the maximum concentration (Cmax) came out at 110 ± 34.1 ng/mL and the mean residence time MRT inf amounted to 3.03 ± 0.14 h. In data set [4] (setting [7]), the MRT last was found to be 2.55 ± 0.04 h, the Tmax was found to be 1 h and the half-life was 1.82 ± 0.07 h. In the data set with HIV-1 F227L + V106A, the EC50 amounted to 16.3 ± 6.24 nM and the “RF F227L + V106A” value amounted to 5.8. Besides, in the data set with HIV-1 L100I, the EC50 stood at 9.13 ± 6.1 nM and the “RF L100I” value is 3.2. Moreover, in the data set with HIV-1 Y181C, the EC50 worked out at 14.1 ± 5.72 nM and the “RF Y181C” value was found to be 5.0. For the same compound, in the data set on HIV-1 Y188L, the concentration giving a half-maximal response (EC50) stood at 15.4 ± 6.07 nM and the “RF Y188L” value is listed as 5.5. Besides, the solubility in the data set “physchem” (pH 7, aqueous buffer) is less than 1 µg/mL. This compound also displayed a solubility in “physchem” (pH 7.4, aqueous buffer) of less than 1 µg/mL. The IC50 at 10 min in data set [5] is 277 to 12000 nM.

As to `Cc1cc(/C=C/C#N)cc(C)c1Nc1ccnc(Nc2ccc(C#N)cc2)n1` [RPV, rilpivirine, reference compound], the concentration for a half-maximal effect (EC50) with HIV-1 WT strain (IIIB) stood at 1 ± 0.27 nM. The “Water solubility (Sol.)” value in data set [2] is less than 1 µg/mL. In addition, the IC50 against HIV-1 RT is 118 ± 27 nM. For the same compound, in the data set with HIV-1 E138K, the “RF E138K” value was found to be 5.8. In the data set on HIV-1 K103N, the “RF K103N” value is listed as 1.3. In the data set with HIV-1 F227L + V106A, the “RF F227L + V106A” value is 82. In addition, the “RF L100I” value in the data set on HIV-1 L100I turned out to be 1.5. Also, the “RF Y188L” value in the data set on HIV-1 Y188L worked out at 80. The compound also had an IC50 at 10 min in data set [5] of 335 to 9110 nM.

Consider `Cc1cc(C#N)cc(C)c1Oc1nc(Nc2ccc(C#N)cc2)nc2c1SCCC2` [compound 15a, 4-((2-((4-Cyanophenyl)amino)-7,8-dihydro-6H-thiopyrano[3,2-d]pyrimidin-4-yl)oxy)-3,5-dimethylbenzonitrile], for which the EC50 in the data set on HIV-1 WT strain (IIIB) was 3.38 ± 3.17 nM. For the same compound, the half-maximal cytotoxic concentration (CC50) at 5 days in [1] worked out at 4530 ± 720 nM. In addition, in the data set with HIV-1 E138K, the EC50 was 17.4 ± 2.24 nM, the “RF E138K” value came to 5.1 and the “SI E138K” value was found to be 260. Moreover, in data set [3], the EC50 worked out at 85.3 ± 54.3 nM, the “RF RES056” value is recorded as 25.2 and the “SI RES056” value amounted to 53. For the same compound, in the data set with HIV-1 K103N, the EC50 stood at 6.41 ± 0.99 nM, the “RF K103N” value was determined as 1.9 and the “SI K103N” value is recorded as 707. Also, in the data set on HIV-1 F227L + V106A, the EC50 stood at 40.9 nM, the “RF F227L + V106A” value amounted to 12.1 and the “SI F227L + V106A” value was 111. In the data set with HIV-1 L100I, the EC50 is 16.7 ± 4.51 nM, the “RF L100I” value is recorded as 4.9 and the “SI L100I” value amounted to 271. For the same compound, in the data set with HIV-1 Y181C, the EC50 was determined as 42.3 ± 4.45 nM, the “RF Y181C” value came out at 12.5 and the “SI Y181C” value was determined as 107. Also, in the data set on HIV-1 Y188L, the EC50 was determined as 20.7 ± 1.88 nM, the “RF Y188L” value came to 6.1 and the “SI Y188L” value amounted to 219.

As to `Cc1cc(C#N)cc(C)c1Oc1nc(Nc2ccc(C#N)cc2)nc2c1S(=O)(=O)CCC2` [compound 16b, 4-((2-((4-Cyanophenyl)amino)-5,5-dioxido-7,8-dihydro-6H-thiopyrano[3,2-d]pyrimidin-4-yl)oxy)-3,5-dimethylbenzonitrile], the EC50 in the data set with HIV-1 WT strain (IIIB) was 1.44 ± 0.17 nM. In data set [1], this compound returned a CC50 at 5 days of 18700 ± 8010 nM. The compound further came in with an IC50 against HIV-1 RT of 27 ± 11 nM. Also, in the data set with HIV-1 E138K, the EC50 is 10.9 ± 0.32 nM, the “RF E138K” value was 7.6 and the “SI E138K” value came out at 1716. Also, in [3], the EC50 amounted to 49.1 ± 14 nM, the “RF RES056” value was 34.1 and the “SI RES056” value is reported as 381. Besides, in the data set on HIV-1 K103N, the EC50 came out at 2.3 ± 0.15 nM, the “RF K103N” value is on record as 1.6 and the “SI K103N” value came out at 8130. Further, in the data set with HIV-1 F227L + V106A, the EC50 stood at 37.9 ± 21.3 nM, the “RF F227L + V106A” value is given as 26.3 and the “SI F227L + V106A” value is listed as 493. In the data set on HIV-1 L100I, the EC50 worked out at 21.8 ± 5.65 nM, the “RF L100I” value is recorded as 15.1 and the “SI L100I” value is recorded as 858. Further, in the data set on HIV-1 Y181C, the EC50 was 10.4 ± 1.44 nM, the “RF Y181C” value is recorded as 7.2 and the “SI Y181C” value was 1798. For the same compound, in the data set with HIV-1 Y188L, the EC50 turned out to be 12.3 ± 2.27 nM, the “RF Y188L” value is recorded as 8.5 and the “SI Y188L” value was determined as 1520.
